According to patent US6670355B2, “Method of treating cardiovascular disease” (Wyeth, priority 2000, dated 2003):
Where “and” joins values, the source holds several entries; their conditions need not be identical. Equal values may be shown once.

System: ApoE knockout (EKO) mice
Assay: standard pharmacological test procedure for atherosclerosis in ApoE knockout (EKO) mice: plasma lipids and aortic arch lesions
Assay type: in vivo
Details: for Aortic Atherosclerosis (% lesion involvement as assessed by lpipd staining): aortic arch, Oil Red O; for Aortic Atherosclerosis (% lesion involvement as assessed by lpipd staining) / HDL-C / LDL-C / Total Cholesterol / Triglycerides / VLDL-C: Western Diet, mean ± S.E.; for HDL-C / LDL-C / Total Cholesterol / Triglycerides / VLDL-C: plasma
Description: The ability of the rapamycins of this invention to treat or inhibit cardiovascular disease or peripheral vascular disease was confirmed in a standard pharmacological test procedure using ApoE knockout (EKO) mice, which are a well accepted animal model of human atherosclerosis. In this test procedure, rapamycin was used a representative example of a rapamycin of this invention. The procedure used, and results obtained are briefly summarized below.
Male EKO mice, 4-6 weeks of age, were housed in shoe-box cages and were allowed ad lib food and water. The animals were randomized by weight into 5 groups (N=12-15 mice per group) and were fed Purina Rodent Chow for the first week of the study. Also during this period as well as the remaining 12 weeks of the study, the animals were dosed every 2 days with 0, 1, 2, 4 or 8 mg/kg rapamycin s.c. using 2% Tween-80, 1% carboxymethyl cellulose as the vehicle and Control. The animal diet was switched to a casein-based Western Diet for week 2 to week 13 of the study. At the end of the study period, the animals were euthanized, plasma samples obtained, and the hearts perfused first with saline, then with 10% formalin. Total cholesterol and triglycerides were determined using enzymatic methods with commercially-available kits from Boehringer Mannheim and Wako Biochemicals, respectively, and the Boehringer Mannheim Hitachii 911 Analyzer (Boehringer Mannheim Diagnostic Laboratory Systems, Indianapolis, Ind.). Separation and quantification of plasma lipoproteins were performed using FPLC size fractionation. Briefly, […] of serum was filtered and injected into two Superose 6 columns (Amersham Pharmacia Biotech, UK, Ltd) connected in series and eluted at a constant flow rate with 1 mM sodium EDTA and 0.15 M NaCl. Areas of each curve representing VLDL, LDL and HDL were integrated using Millennium software (Waters Technologies Corporation), and each lipoprotein fraction was quantified by multiplying the Total Cholesterol value by the relative percent area of each respective peak. The aortas were carefully isolated and remained in the formalin fixative for 48-72 hours before handling. Atherosclerotic lesions were identified by Oil Red O staining, a well accepted procedure for identifying accumulation of neutral lipids such as cholesterols and triglycerides. The vessels were destained, and then imaged using a Nikon SMU800 microscope fitted with a Sony 3CCD video camera system in concert with IMAQ Configuration Utility (National Instrument) as the image capturing software. The lesions were quantified along the aortic arch using a custom threshold utility software package designed by Robert Coll (Coleman Technologies). Automated lesion assessment was performed on the vessels using the threshold function of the program, specifically on the region contained within the aortic arch from the proximal edge of the Right Common Carotid artery to the distal edge of the Left Subclavian artery. Aortic atherosclerosis data were expressed as percent lesion (lipid) involvement strictly within this defined luminal area. Statistical significance between the Control and treated groups was determined using the Dunnett's Test at 1% significance level (p<0.01).

SMILES: CO[C@H]1C[C@@H]2CC[C@@H](C)[C@@](O)(O2)C(=O)C(=O)N2CCCC[C@H]2C(=O)O[C@H]([C@H](C)C[C@@H]2CC[C@@H](O)[C@H](OC)C2)CC(=O)[C@H](C)/C=C(\C)[C@@H](O)[C@@H](OC)C(=O)[C@H](C)C[C@H](C)/C=C/C=C/C=C/1C [rapamycin]
- area of aorta containing fat (1, 2, 4, or 8-mg/kg qod for 12 weeks): 12-16%
- Aortic Atherosclerosis (% lesion involvement as assessed by lpipd staining) (1 mg/kg s.c. every 2 days, 1 mg/kg): 21.6% and 21.6 ± 3.1 %
- Aortic Atherosclerosis (% lesion involvement as assessed by lpipd staining) (2 mg/kg s.c. every 2 days, 2 mg/kg): 14.9 ± 3.1 %
- Aortic Atherosclerosis (% lesion involvement as assessed by lpipd staining) (4 mg/kg s.c. every 2 days, 4 mg/kg): 16% and 16.4 ± 2.8 %
- Aortic Atherosclerosis (% lesion involvement as assessed by lpipd staining) (8 mg/kg s.c. every 2 days, 8 mg/kg): 12% and 12.03 ± 2.3 %
- effect on VLDL-cholesterol (compared with control EKO mice): not significantly affecting
- effect on circulating plasma HDL-cholesterol (compared with control EKO mice): significantly (p<0.01) increased
- effect on circulating plasma LDL-cholesterol (compared with control EKO mice): significantly (p<0.01) increased
- effect on total cholesterol (compared with control EKO mice): not significantly affecting
- effect on triglycerides (compared with control EKO mice): not significantly affecting
- HDL-C (1 mg/kg s.c. every 2 days): 23 ± 6 mg/dL
- LDL-C (1 mg/kg s.c. every 2 days): 508 ± 18 mg/dL
- Total Cholesterol (1 mg/kg s.c. every 2 days): 1434 ± 35 mg/dL
- Triglycerides (1 mg/kg s.c. every 2 days): 132 ± 16 mg/dL
- VLDL-C (1 mg/kg s.c. every 2 days): 903 ± 34 mg/dL
- HDL-C (2 mg/kg s.c. every 2 days): 31 ± 5 mg/dL
- LDL-C (2 mg/kg s.c. every 2 days): 517 ± 18 mg/dL
- Total Cholesterol (2 mg/kg s.c. every 2 days): 1311 ± 80 mg/dL
- Triglycerides (2 mg/kg s.c. every 2 days): 143 ± 20 mg/dL
- VLDL-C (2 mg/kg s.c. every 2 days): 763 ± 64 mg/dL
- HDL-C (4 mg/kg s.c. every 2 days): 38 ± 5 mg/dL
- LDL-C (4 mg/kg s.c. every 2 days): 494 ± 10 mg/dL
- Total Cholesterol (4 mg/kg s.c. every 2 days): 1281 ± 58 mg/dL
- Triglycerides (4 mg/kg s.c. every 2 days): 136 ± 12 mg/dL
- VLDL-C (4 mg/kg s.c. every 2 days): 749 ± 58 mg/dL
- HDL-C (8 mg/kg s.c. every 2 days): 49 ± 3 mg/dL
- LDL-C (8 mg/kg s.c. every 2 days): 475 ± 21 mg/dL
- Total Cholesterol (8 mg/kg s.c. every 2 days): 1167 ± 75 mg/dL
- Triglycerides (8 mg/kg s.c. every 2 days): 134 ± 9 mg/dL
- VLDL-C (8 mg/kg s.c. every 2 days): 644 ± 58 mg/dL
- circulating total cholesterol (rapamycin treated animals, 1, 2, 4, or 8-mg/kg qod for 12 weeks): 1300 to 1500 mg/dL
- reduction in aortic atherosclerosis (rapamycin treated vs Control EKO mice): three-fold reduction
